According to patent US20230357233A1, “HETEROARYL COMPOUNDS, PREPARATION METHODS AND USES THEREOF” (INVENTISBIO CO., LTD., priority 2020, published 2023):

Molecular target: Ba/F3_KRAS^G12D cells (Homo sapiens, UniProt P01116, G12D, cells depend on it)
Test: Ba/F3 KRAS^G12D cell proliferation assay (cell-titer Glo)
Type: cell-based
Settings: cell growth inhibition, treated with the compounds for 3 days, read-out: BaF3_KRAS^G12D IC50
Method: Cells were seeded at a density of 5×10^3 per well into 96-well plate and incubated overnight. Serial diluted compounds were added to each well. Cells were treated with the compounds for 3 days, after which cell-titer Glo reagent (Promega #G7572) was used to assess cell proliferation. The luminescence signal was then collected on Tecan Spark plate reader. […] Cell growth inhibition of IC50 is calculated with the equation of Y=Bottom+(Top−Bottom)/(1+10^((LogIC50−X)*HillSlope))

Chain of Ba/F3_KRAS^G12D cells (P01116 whole entry G12D): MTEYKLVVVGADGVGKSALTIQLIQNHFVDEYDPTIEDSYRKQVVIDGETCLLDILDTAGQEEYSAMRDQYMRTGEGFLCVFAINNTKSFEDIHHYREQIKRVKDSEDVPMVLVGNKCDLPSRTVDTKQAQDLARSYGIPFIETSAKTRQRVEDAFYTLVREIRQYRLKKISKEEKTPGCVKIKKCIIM

Row | GI50 | Compound
1 | < 500 nM | C#Cc1c(F)ccc2cc(O)cc(-c3nc(OCC(F)F)c4c(N5CC6CCC(C5)N6)nc(OC[C@@]56CCCN5C[C@H](F)C6)nc4c3F)c12 [Compound 180]
2 | < 500 nM | C#Cc1c(F)ccc2cc(O)cc(-c3c(F)c4nc(OC[C@@]56CCCN5C[C@H](F)C6)nc(N5CC6CCC(C5)N6)c4c4ncnn34)c12 (single isomer, unassigned) [Compound 156]
3 | < 500 nM | C#Cc1c(F)ccc2cc(N)cc(-c3nc(OC(C)C)c4c(N5CC6CCC(C5)N6)nc(OC[C@@H]5C[C@H](F)CN5C)nc4c3F)c12 [Compound 207]
4 | < 500 nM | C#Cc1c(F)ccc2cccc(-c3nc(OC(C)C)c4c(N5CC6CCC(C5)N6)nc(OC[C@]56CCCN5[C@@H](CO)CC6)nc4c3F)c12 [Compound 238]
5 | < 500 nM | C#Cc1c(F)ccc2cc(O)cc(-c3nc(OC(C)C)c4c(N5CCNC(C(F)F)C5)nc(OC[C@@]56CCCN5C[C@H](F)C6)nc4c3F)c12 (stereo partly shown) [Compound 220]
6 | 500 to 5000 nM | C#Cc1c(F)ccc2cc(N)cc(-c3nc(O)c4c(N5CC6CCC(C5)N6)nc(OC[C@@H]5C[C@@H](F)CN5C)nc4c3F)c12 [Compound 210]
7 | < 500 nM | C#Cc1c(F)ccc2cc(O)cc(-c3nc(OCC)c4c(N5C[C@H]6CC[C@@H](C5)[C@@H]6O)nc(OC[C@@]56CCCN5C[C@H](F)C6)nc4c3F)c12 [Compound 212]
8 | < 500 nM | CCc1c(F)ccc2cccc(-c3nc(OC)c4c(N5CC6CCC(C5)N6)nc(OC[C@]56CCCN5[C@@H](COC(=O)N(C)C)CC6)nc4c3F)c12 [Compound 217]
9 | < 500 nM | C#Cc1c(F)ccc2cc(O)cc(-c3nc(OC)c4c(N5CC6CCC(C5)N6)nc(OCC5(CN6CCCC6)CC5)nc4c3F)c12 [Compound 183]
10 | 500 to 5000 nM | C#Cc1c(F)ccc2cc(O)cc(-c3nc(O)c4c(N5CC6CCC(C5)N6)nc(C(F)F)nc4c3F)c12 [Compound 211]
11 | < 500 nM | C#Cc1c(F)ccc2cc(O)cc(-c3nc(OC(C)C)c4c(N5CC6CCC(C5)N6)nc(OC[C@@H]5C[C@H](F)CN5C)nc4c3F)c12 [Compound 204]
12 | < 500 nM | CCc1c(F)ccc2cc(O)cc(-c3ncc4c(N5CC6CCC(C5)N6)nc(OC[C@@]56CCCN5C[C@H](F)C6)nc4c3F)c12 [Compound 140]
13 | < 500 nM | C#Cc1c(F)ccc2cc(O)cc(-c3nc(C4CC4)c4c(N5CC6CCC(C5)N6)ncnc4c3F)c12 [Compound 205]
14 | < 500 nM | C#Cc1c(F)ccc2cc(O)cc(-c3nc(OC)c4c(N5CC6CCC(C5)N6)nc(OC[C@@]56CCCN5[C@H](COC(=O)N(C)C)CC6)nc4c3F)c12 [Compound 175]
15 | < 500 nM | C#Cc1c(F)ccc2cc(O)cc(-c3nc(OC(C)C)c4c(N5CC6CCC(C5)N6)nc(OCCN(C)C)nc4c3F)c12 [Compound 194]
16 | < 500 nM | C#Cc1c(F)ccc2cc(O)cc(-c3nc(OC)c4c(N5CC6CCC(C5)N6)nc(OC[C@@]56CCCN5[C@@H](COC(=O)N(C)C)CC6)nc4c3F)c12 [Compound 177]
17 | < 500 nM | C#Cc1c(F)ccc2cccc(-c3nc(OC)c4c(N5CC6CCC(C5)N6)nc(OC[C@]56CCCN5[C@@H](COC(=O)N(C)C)CC6)nc4c3F)c12 [Compound 216]
18 | < 500 nM | C#Cc1c(F)ccc2c(F)c(O)cc(-c3nc(C)c4c(N5CC6CCC(C5)N6)nc(OC[C@@]56CCCN5C[C@H](F)C6)nc4c3F)c12 [Compound 143]
19 | < 500 nM | C#Cc1c(F)ccc2cc(O)cc(-c3nc(OC(C)C)c4c(N5CC6CCC(C5)N6)nc(C(F)F)nc4c3F)c12 [Compound 190]
20 | 500 to 5000 nM | C#Cc1c(F)ccc2cc(O)cc(-c3nc(OC(C)C)c4c(N5CC6CCC(C5)N6)nc(NC)nc4c3F)c12 [Compound 186]
21 | < 500 nM | C#Cc1c(F)ccc2cc(O)cc(-c3nc(O)c4c(N5CC6CCC(C5)N6)nc(OCCOC)nc4c3F)c12 [Compound 193]
22 | < 500 nM | C#Cc1c(F)ccc2cc(O)cc(-c3nc(OC(C)C)c4c(N5CC6CCC(C5)N6)nc(OCC5(CN6CCOCC6)CC5)nc4c3F)c12 [Compound 229]
23 | < 500 nM | CCc1c(F)ccc2cc(O)cc(-c3nc(OC)c4c(N5CC6CCC(C5)N6)nc(OC[C@]56CCCN5[C@@H](COC(=O)N(C)C)CC6)nc4c3F)c12 [Compound 215]
24 | < 500 nM | C#Cc1c(F)ccc2cc(O)cc(-c3nc(OC(C)C)c4c(N5CC6CCC(C5)N6C)nc(OC[C@@]56CCCN5C[C@H](F)C6)nc4c3F)c12 [Compound 203]
25 | < 500 nM | C#Cc1c(F)ccc2cc(O)cc(-c3nc(OCC)c4c(N5CC6CCC(C5)N6)nc(OCC5(CN6CCOCC6)CC5)nc4c3F)c12 [Compound 234]
26 | 500 to 5000 nM | C#Cc1c(F)ccc2cc(O)cc(-c3nc(O)c4c(N5CC6CCC(C5)N6)nc(OC[C@]56CCCN5[C@@H](COC(=O)N(C)C)CC6)nc4c3F)c12 [Compound 239]
27 | < 500 nM | C#Cc1c(F)ccc2cc(O)cc(-c3nc(OC)c4c(N5CC6CCC(C5)N6)nc(OCC5(CN6CCOCC6)CC5)nc4c3F)c12 [Compound 185]
28 | < 500 nM | C#Cc1c(F)ccc2cc(O)cc(-c3nc(OC(C)C)c4c(N5CC6CCC(C5)N6)ncnc4c3F)c12 [Compound 150]

Row | GI50 | Compound
29 | < 500 nM | C#Cc1c(F)ccc2cc(O)cc(-c3nc(OC(C)C)c4c(N5CCNC(CF)C5)nc(OC[C@@]56CCCN5C[C@H](F)C6)nc4c3F)c12 (stereo partly shown) [Compound 242]
30 | < 500 nM | C#Cc1c(F)ccc2cc(N)cc(-c3nc(OC(C)C)c4c(N5CC6CCC(C5)N6)nc(OC[C@@]56CCCN5C[C@H](F)C6)nc4c3F)c12 [Compound 200]
31 | < 500 nM | C#Cc1c(F)ccc2c(F)c(N)cc(-c3nc(OC(C)C)c4c(N5CC6CCC(C5)N6)nc(OC[C@@]56CCCN5C[C@H](F)C6)nc4c3F)c12 [Compound 202]
32 | 500 to 5000 nM | C#Cc1c(F)ccc2cccc(-c3nc(OC(C)C)c4c(N5CC6CCC(C5)N6)nc(OC[C@@H]5C[C@@H](OC(=O)N(C)CCCCCCCCCCCCCCCC)CN5C)nc4c3F)c12 [Compound 246]
33 | < 500 nM | C#Cc1c(F)ccc2cc(N)cc(-c3nc(OC)c4c(N5CC6CCC(C5)N6)nc(OC[C@@H]5C[C@H](F)CN5C)nc4c3F)c12 [Compound 209]
34 | < 500 nM | C#Cc1c(F)ccc2cc(O)cc(-c3nc(OC)c4c(N5CC6CCC(C5)N6)ncnc4c3F)c12 [Compound 161]
35 | 500 to 5000 nM | Oc1cc(-c2nc(O)c3c(N4CC5CCC(C4)N5)nc(OC[C@@]45CCCN4C[C@H](F)C5)nc3c2F)c2c(Cl)c(F)ccc2c1 [Compound 174]
36 | < 500 nM | C#Cc1c(F)ccc2cc(O)cc(-c3nc(OC)c4c(N5CC6CCC(C5)N6)nc(OC[C@]56CCCN5[C@H](COC(=O)N(C)C)CC6)nc4c3F)c12 [Compound 178]
37 | < 500 nM | C#Cc1c(F)ccc2cccc(-c3nc(OCC)c4c(N5CC6CCC(C5)N6)nc(OC[C@]56CCCN5[C@@H](COC(=O)N(C)C)CC6)nc4c3F)c12 [Compound 236]
38 | 500 to 5000 nM | C#Cc1c(F)ccc2cc(O)cc(-c3nc(OC(C)C)c4c(N5CC6CCC(C5)N6)nc(N(C)C)nc4c3F)c12 [Compound 189]
39 | < 500 nM | C#Cc1c(F)ccc2cc(O)cc(-c3nc(OC(C)C)c4c(N5CCNCC(F)(F)C5)nc(OC[C@@]56CCCN5C[C@H](F)C6)nc4c3F)c12 [Compound 219]
40 | 500 to 5000 nM | C#Cc1c(F)ccc2cc(N)cc(-c3nc(O)c4c(N5CC6CCC(C5)N6)nc(OC[C@@]56CCCN5C[C@H](F)C6)nc4c3F)c12 [Compound 201]
41 | < 500 nM | C#Cc1c(F)ccc2cc(O)cc(-c3nc(OC(C)C)c4c(N5CC6CCC(C5)N6)nc(OC[C@]56CCCN5[C@H](CO)CC6)nc4c3F)c12 [Compound 228]
42 | < 500 nM | Cc1nc(N)cc(-c2nc(OC(C)C)c3c(N4CC5CCC(C4)N5)nc(OC[C@@]45CCCN4C[C@H](F)C5)nc3c2F)c1C(F)(F)F [Compound 198]
43 | < 500 nM | C#Cc1c(F)ccc2cc(O)cc(-c3nc(OC(C)C)c4c(N5CC6CCC(C5)N6)nc(OC[C@@H]5C[C@@H](OC(=O)N(C)C)CN5C)nc4c3F)c12 [Compound 235]
44 | < 500 nM | C#Cc1c(F)ccc2cccc(-c3nc(OC(C)C)c4c(N5CC6CCC(C5)N6)nc(OC[C@]56CCCN5[C@@H](COC(=O)N(C)C)CC6)nc4c3F)c12 [Compound 222]
45 | < 500 nM | C#Cc1c(F)ccc2cc(O)cc(-c3nc(C4CC4)c4c(N5CC6CCC(C5)N6)nc(OC[C@@]56CCCN5C[C@H](F)C6)nc4c3F)c12 [Compound 181]
46 | < 500 nM | C#Cc1c(F)ccc2cc(O)cc(-c3c(F)c4nc(OC[C@@]56CCCN5C[C@H](F)C6)nc(N5CC6CCC(C5)N6)c4c4ncnn34)c12 (single isomer, unassigned) [Compound 155]
47 | < 500 nM | C#Cc1c(F)ccc2cc(O)cc(-c3ncc4c(N5CC6CCC(C5)N6)nc(OC[C@@]56CCCN5C[C@H](F)C6)nc4c3F)c12 [Compound 129]
48 | < 500 nM | C#Cc1c(F)ccc2cc(O)cc(-c3nc(OC)c4c(N5CC6CCC(C5)N6)nc(OCC5(CN6CCC6)CC5)nc4c3F)c12 [Compound 184]
49 | < 500 nM | CCOc1nc(-c2cccc3ccc(F)c(CC)c23)c(F)c2nc(OC[C@]34CCCN3[C@@H](COC(=O)N(C)C)CC4)nc(N3CC4CCC(C3)N4)c12 [Compound 237]
50 | < 500 nM | C#Cc1c(F)ccc2cc(O)cc(-c3nc(OC(C)C)c4c(N5CCNC6(CC6)C5)nc(OC[C@@]56CCCN5C[C@H](F)C6)nc4c3F)c12 [Compound 241]
51 | < 500 nM | C#Cc1c(F)ccc2cc(O)cc(-c3nc(OC)c4c(N5CC6CCC(C5)N6)nc(OCC5(CN(C)C)CC5)nc4c3F)c12 [Compound 182]
52 | < 500 nM | C#Cc1c(F)ccc2cc(O)cc(-c3nc(OC(C)C)c4c(N5CC6CCC(C5)N6)nc(OC[C@]56CCCN5[C@@H](CO)CC6)nc4c3F)c12 [Compound 227]
53 | < 500 nM | CCc1c(F)ccc2cccc(-c3nc(OC(C)C)c4c(N5CC6CCC(C5)N6)nc(OC[C@]56CCCN5[C@@H](COC(=O)N(C)C)CC6)nc4c3F)c12 [Compound 223]
54 | < 500 nM | C#Cc1c(F)ccc2cccc(-c3nc(OCC)c4c(N5CC6CCC(C5)N6)nc(OC[C@@]56CCCN5C[C@H](F)C6)nc4c3F)c12 [Compound 168]
55 | 500 to 5000 nM | C#Cc1c(F)ccc2cc(O)cc(-c3nc(OCC(F)(F)F)c4c(N5CC6CCC(C5)N6)ncnc4c3F)c12 [Compound 153]
